Where two headings read alike, the source gives them in different places.
Experiments:
[1] = Orienting toxicity test, LD 50; settings: in vivo
Protocol: In the following experiments listed below the cyclic 2-furfural-acetals to be used according to the invention were tested for their anti-inflammatoryproperties. First an orienting experiment was carried out to determine their toxicity, in order to be able to determine the test dosages for the further experiments.

[2] = system: carrageenin induced edema of the rats paw; test: Rat's paw test with carrageenin induced edema (amputation method); format: in vivo; settings: 30 minutes before carrageenin, paws weighed 3 hours after carrageenin, read-out: Rat's paw test with carrageenin induced edema, checking (% inhibition)
Protocol: As a determination of the suitability of the compounds for preventing the inflammation caused by sunburn, a variation of the rats paw test was used, namely the so-called amputation method was used, which is described by C. H. Winter in the Journal of Pharmacology and Experimental Therapeutics 141, p.369 (1963). In the experiments, Carrageenin is used as the substance causing inflammation.
While only the Carrageenin solution was administered to the control animals, the test animals were given the different test substances by injection or by administration per os in the amount given in Table I below, 30 minutes before its injection with the Carrageenin solution. The test animals were killed 3 hours after the injection of the carrageenin solution causing the inflammation, and the weight of the paws was determined. The inhibiting of the development of the edema of the rats paws after the subplantar injection of the compound checking inflammation was used as an index of the degree of activity and was expressed in % inhibition.
On the basis of general practice, the results of the rats paw test serve as a base for the evaluation of a compound as a sunburn control agent.

[3] = UV-spectrum, absorption maxima; format: physicochemical
Source text: In addition, the absorption maxima of the test substances in the ultraviolet region are given in the following Table I. Since with some of the test substances the absorption maxima lie conveniently in the ultraviolet region producing erythema, which extends from 280 to 320 mμ these, besides their inflammation-preventing action as sunburn control substances, show themselves simultaneously as useful means for protection from the sun.

| SMILES | LD50 [1] [mg/kg] | inhibition in vivo at 500 mg/kg ([2]; po, 500 mgm/kg p.o.) [%] | UV-spectrum λ-max [3] [mμ] | UV-spectrum logε at λ-max [3] | other results |
| --- | --- | --- | --- | --- | --- |
| c1coc(C2OC3CCCCC3O2)c1 (centres unmarked) [Compound Y, 2-(Furyl-2')-4,5-tetramethylene-1,3-dioxolane] | 300 | – | – | – | inhibition in vivo at 250 mg/kg ([2]; po, 250 mgm/kg p.o.): 32.3% |
| O=[N+]([O-])c1ccc(C2OCCCCO2)o1 [Compound B, 2-(5'-nitrofuryl-2')-1,3-dioxepane] | 1750 | 12.3 | – | – | – |
| O=[N+]([O-])c1ccc(C2OC3CCCCC3O2)o1 (centres unmarked) [Compound E, 2-(5'-nitrofuryl-2')-4,5-tetramethylene-1,3-dioxolane] | 1000 | 17.7 | 305 | 4.01 | – |
| CC(C)C1OC(c2ccco2)OCC1(C)C (centres unmarked) [Compound F, 2-(furyl-2')-4-isopropyl-5,5-dimethyl-1,3-dioxane] | 300 | – | 300 | 2.35 | inhibition in vivo at 250 mg/kg ([2]; po, 250 mgm/kg p.o.): 48.4% |
| CC1OC(c2ccc([N+](=O)[O-])o2)OC(C)C1C (centres unmarked) [Compound K, 2-(5'-Nitrofuryl-2')-4,5,6-trimethyl-1,3-dioxane] | 690 | – | 303 | 3.76 | inhibition in vivo at 250 mg/kg ([2]; po, 250 mgm/kg p.o.): 30.8% |
| CCCCCCCCCCC1COC(c2ccc([N+](=O)[O-])o2)O1 (centres unmarked) [Compound V, 2-(5'-nitrofuryl-2')-4-n-decyl-1,3-dioxolane] | 1000 | – | – | – | inhibition in vivo at 1000 mg/kg ([2]; po, 1000 mgm/kg p.o.): 18.3% |
| O=[N+]([O-])c1ccc(C2OCCO2)o1 [Compound A, 2-(5'-Nitrofuryl-2')-1,3-dioxolane] | 810 | 16.2 | 302 | 4.02 | – |
| CCCCCCCCCCCCC1COC(c2ccc([N+](=O)[O-])o2)O1 (centres unmarked) [Compound M, 2-(5'-nitrofuryl-2')-4-dodecyl-1,3-dioxolane] | 1000 | – | – | – | inhibition in vivo at 1000 mg/kg ([2]; ip, 1000 mgm/kg i.p.): 18.3% |
| CC1CCOC(c2ccc([N+](=O)[O-])o2)O1 (centres unmarked) [Compound X, 2-(5'-nitrofuryl-2')-4-methyl-1,3-dioxane] | 750 | 12.1 | 303 | 3.87 | – |
| CCCCCCCCCCCCCCCCC1COC(c2ccc([N+](=O)[O-])o2)O1 (centres unmarked) [Compound O, 2-(5'-nitrofuryl-2')-4-hexadecyl-1,3-dioxolane] | 2500 | – | – | – | inhibition in vivo at 250 mg/kg ([2]; ip, 250 mgm/kg i.p.): 29.6% |
| CCCC1(C)COC(c2ccc([N+](=O)[O-])o2)OC1 (centres unmarked) [Compound C, 2-(5'-nitrofuryl-2')-5-methyl-5-propyl-1,3-dioxane] | 300 | – | 302 | 3.98 | inhibition in vivo at 250 mg/kg ([2]; po, 250 mgm/kg p.o.): 16.5% |
| CC1CC(C)(C)OC(c2ccc([N+](=O)[O-])o2)O1 (centres unmarked) [Compound L, 2-(5'-nitrofuryl-2')-4,4,6-trimethyl-1,3-dioxane] | 1130 | 21.9 | 304 | 4.01 | – |
| Cc1ccc(C2OC(C)C(C)O2)o1 (centres unmarked) [Compound J, 2-(5'-methylfuryl-2')-4,5-dimethyl-1,3-dioxolane] | 1000 | – | 300 | 1.96 | inhibition in vivo at 1000 mg/kg ([2]; po, 1000 mgm/kg p.o.): 48.4% |
| CC(C)C1OC(c2ccc([N+](=O)[O-])o2)OCC1(C)C (centres unmarked) [Compound Q, 2-(5'-nitrofuryl-2')-4-isopropyl-5,5-dimethyl-1,3-dioxane] | 1750 | – | 301 | 4.07 | inhibition in vivo at 750 mg/kg ([2]; po, 750 mgm/kg p.o.): 34.1% |
| CCCCCCCCCCCCCCC1COC(c2ccc([N+](=O)[O-])o2)O1 (centres unmarked) [Compound N, 2-(5'-nitrofuryl-2')-4-tetradecyl-1,3-dioxolane] | 1000 | – | – | – | inhibition in vivo at 1000 mg/kg ([2]; ip, 1000 mgm/kg i.p.): 10.5% |
| O=[N+]([O-])c1ccc(C2OCCCO2)o1 [Compound W, 2-(5'-nitrofuryl-2')-1,3-dioxane] | 750 | 16.9 | 303 | 3.79 | – |
| CC1OC(c2ccco2)OC1C (centres unmarked) [Compound G, 2-(furyl-2')-4,5-dimethyl-1,3-dioxolane] | 300 | – | 300 | 2.13 | inhibition in vivo at 250 mg/kg ([2]; po, 250 mgm/kg p.o.): 14.5% |
| CCCCC1COC(c2ccc([N+](=O)[O-])o2)O1 (centres unmarked) [Compound S, 2-(5'-nitrofuryl-2')-4-n-butyl-1,3-dioxolane] | 810 | – | – | – | inhibition in vivo at 500 mg/kg ([2]; ip, 500 mgm/kg i.p.): 10.6% |
| Cc1ccc(C2OCC(C)(C)C(C(C)C)O2)o1 (centres unmarked) [Compound H, 2-(5'-methylfuryl-2')-4-isopropyl-5,5-dimethyl-1,3-dioxane] | 1000 | – | 300 | 2.08 | inhibition in vivo at 1000 mg/kg ([2]; po, 1000 mgm/kg p.o.): 50% |
| CC1(C)OC(c2ccc([N+](=O)[O-])o2)OC1(C)C [Compound D, 2-(5'-nitrofuryl-2')-4,4,5,5-tetramethyl-1,3-dioxolane] | 810 | 16.5 | 303 | 4.01 | – |
| CCCCCCCCC1COC(c2ccc([N+](=O)[O-])o2)O1 (centres unmarked) [Compound U, 2-(5'-nitrofuryl-2')-4-n-octyl-1,3-dioxolane] | 5000 | – | – | – | inhibition in vivo at 250 mg/kg ([2]; ip, 250 mgm/kg i.p.): 17% |
| CCCCCCC1COC(c2ccc([N+](=O)[O-])o2)O1 (centres unmarked) [Compound T, 2-(5'-nitrofuryl-2')-4-n-hexyl-1,3-dioxolane] | 1000 | – | – | – | inhibition in vivo at 1000 mg/kg ([2]; po, 1000 mgm/kg p.o.): 12.8% |
| CC1COC(c2ccc([N+](=O)[O-])o2)O1 (centres unmarked) [Compound R, 2-(5'-nitrofuryl-2')-4-methyl-1,3-dioxolane] | 750 | – | 303 | 3.84 | inhibition in vivo at 50 mg/kg ([2]; ip, 50 mgm/kg i.p.): 36.6% |
